Measured values from patent US20080200515A1, “SOLID STATE FORMS OF ENANTIOPURE ILAPRAZOLE” (TAP PHARMACEUTICAL PRODUCTS INC., priority 2006, published 2008).

Assays:
gastric acid = experiment: Phase 1 clinical studies with ilaprazole: suppression of gastric acid; type: in vivo, human; details: at the doses studied
[1] = tested on: acid-related gastric and duodenal ulcers; experiment: Phase 2 clinical studies with ilaprazole in patients with gastric-acid related disorders; type: in vivo, human; details: at the doses studied

For COc1ccnc(C[S+]([O-])c2nc3cc(-n4cccc4)ccc3[nH]2)c1C (stereo not drawn) [ilaprazole, 2[[(4-methoxy-3-methyl-2-pyridinyl)-methyl]sulfinyl]-5-(1H-pyrrol-1-yl) 1H-Benzimidazole], the “suppression of gastric acid” value (gastric acid) was “suppression of gastric acid occurs over a 24-hour period”, the “healing of acid-related gastric and duodenal ulcers” value [1] was “promoted rapid healing” and the symptomatic relief ([1]; patients with gastric-acid related disorders) was “provided symptomatic relief”.
